The source of these data is patent publication US7449459B2, “Inhibitors of soluble adenylate cyclase” (Bayer Schering Pharma AG, priority 2006, dated 2008).

This assay has as its target soluble, sperm-specific adenylate cyclase (sAC) (Homo sapiens, UniProt Q96PN6). In words: sAC-Assay (HTRF cAMP detection). Conditions: inhibition of the soluble adenylate cyclase. It is filed as biochemical. An excerpt:
In a suitable buffer system, the soluble, sperm-specific adenylate cyclase catalyzes the reaction of adenosine triphosphate (ATP) to cyclic adenosine monophosphate (cAMP) and pyrophosphate. Free cAMP that is generated in this way is then used in a competitive detection process, in which the binding of a europium kryptate (Eu[K])-labeled anti-cAMP antibody (anti cAMP-Eu[K]-AK) to a cAMP-molecule-labeled, modified allophycocyanine-1 molecule (cAMP-XL665) is prevented. In the absence of exogenic cAMP, after excitation at 335 nm, it results in a fluorescence resonance energy transfer (FRET) between the anti cAMP-Eu[K]-AK (FRET-donor) and the cAMP-XL665 molecule (FRET-acceptor). This process is quantified at different times (time-resolved) based on the emission of FRET-acceptor XL665 (665 nm and 620 nm). A signal drop (measured as a wave ratio; calculation formula: [(E665 nm/E620 nm)×10000]) can be attributed to the presence of cAMP and thus to the activity of sAC.
First, 1.5 μl of the test substance (in 30% DMSO), only 30% DMSO in the solvent controls, is introduced per recess in a 384-hole test plate (polystyrene; 384, NV). […]
After an additional incubation of 90 minutes at room temperature, the HTRF result is measured either on the Packard Discovery or with the RubiStar HTRF measuring device (Delay: 50 μs; Integration time: 400 μs).

Chain of soluble, sperm-specific adenylate cyclase (sAC) (Q96PN6 whole entry): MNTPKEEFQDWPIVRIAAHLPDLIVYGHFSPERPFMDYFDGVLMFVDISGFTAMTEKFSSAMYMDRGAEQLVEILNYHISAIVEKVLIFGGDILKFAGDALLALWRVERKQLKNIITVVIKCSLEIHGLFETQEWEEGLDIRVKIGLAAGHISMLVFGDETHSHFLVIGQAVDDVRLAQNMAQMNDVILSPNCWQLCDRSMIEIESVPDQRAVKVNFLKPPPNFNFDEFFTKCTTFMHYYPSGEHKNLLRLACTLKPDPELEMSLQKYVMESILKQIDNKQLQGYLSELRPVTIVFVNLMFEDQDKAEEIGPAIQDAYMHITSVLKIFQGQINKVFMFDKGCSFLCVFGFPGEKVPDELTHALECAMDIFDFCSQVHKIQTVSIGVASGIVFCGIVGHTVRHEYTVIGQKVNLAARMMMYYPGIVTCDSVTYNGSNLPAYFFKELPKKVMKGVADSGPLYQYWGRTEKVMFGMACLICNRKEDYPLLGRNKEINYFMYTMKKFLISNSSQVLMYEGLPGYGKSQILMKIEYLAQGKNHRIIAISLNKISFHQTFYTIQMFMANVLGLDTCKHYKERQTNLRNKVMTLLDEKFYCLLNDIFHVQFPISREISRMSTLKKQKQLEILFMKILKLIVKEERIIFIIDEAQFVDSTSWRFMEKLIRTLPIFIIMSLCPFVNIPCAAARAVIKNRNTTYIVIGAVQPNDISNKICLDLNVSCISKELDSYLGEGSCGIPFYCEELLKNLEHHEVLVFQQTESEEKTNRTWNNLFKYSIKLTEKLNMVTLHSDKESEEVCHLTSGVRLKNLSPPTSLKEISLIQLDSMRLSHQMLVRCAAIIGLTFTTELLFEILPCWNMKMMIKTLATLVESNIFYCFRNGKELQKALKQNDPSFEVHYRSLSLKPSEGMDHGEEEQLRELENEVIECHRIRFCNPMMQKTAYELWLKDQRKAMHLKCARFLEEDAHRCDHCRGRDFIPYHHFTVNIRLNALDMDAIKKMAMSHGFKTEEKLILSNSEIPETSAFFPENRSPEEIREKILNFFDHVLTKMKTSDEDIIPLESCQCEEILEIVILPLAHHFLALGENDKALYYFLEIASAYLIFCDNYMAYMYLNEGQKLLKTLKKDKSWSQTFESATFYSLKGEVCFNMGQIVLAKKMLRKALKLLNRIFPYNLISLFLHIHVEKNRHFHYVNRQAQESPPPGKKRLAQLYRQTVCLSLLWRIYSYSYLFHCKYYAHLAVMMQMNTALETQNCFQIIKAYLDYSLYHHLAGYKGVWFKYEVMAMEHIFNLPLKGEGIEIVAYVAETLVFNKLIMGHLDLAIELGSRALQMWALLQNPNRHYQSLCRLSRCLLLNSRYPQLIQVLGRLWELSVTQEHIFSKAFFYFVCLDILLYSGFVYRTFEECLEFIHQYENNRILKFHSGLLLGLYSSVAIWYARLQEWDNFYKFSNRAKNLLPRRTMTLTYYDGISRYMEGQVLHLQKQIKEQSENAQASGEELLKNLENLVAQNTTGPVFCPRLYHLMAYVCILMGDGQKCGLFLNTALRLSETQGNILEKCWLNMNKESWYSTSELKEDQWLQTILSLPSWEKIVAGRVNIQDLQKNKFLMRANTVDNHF

In the case of `CC(C)(C)c1ccc(S(=O)(=O)Nc2ccc3[nH]c(/C=C/C(=O)NCCN4CCOCC4)c(-c4ccccc4)c3c2)cc1`, the IC50 (usually the point on the concentration scale where inhibition reaches its midpoint) came to 3.5 µM.
In turn, `CC(O)CNC(=O)/C=C/c1[nH]c2ccc(NS(=O)(=O)c3ccc(C(C)(C)C)cc3)cc2c1-c1ccccc1` (racemic) [(±)-(E)-3-[5-(4-tert-Butyl-phenylsulfonylamino)-3-phenyl-1H-indol-2-yl]-N-(2-hydroxy-propyl)-acrylic acid amide] gave an IC50 of 4.4 µM.
